Assay results as given in patent US20140315972A1, “RS)-2-(2-oxo-4-phenylpyrrolidin-1-yl)acetamide compound having modulatory activity with a commensurate effect, pharmaceutical substance (variants) and its application, composition (variants) thereof” (priority 2011, published 2014).
Marks after values point to notes of the source that are not given here.

Tests used:
mice [1] = test: Toxic effect of ethanol (lateral position, lethal dose); format: in vivo; details: 25.0-200 mg/kg
From the text: The antitoxic, sobering and anticraving, activity, as well as the effect of Phenotropil in abstinence was studied on white outbred male rats (weighing 180-220 g) and male mice (weighing 18-24 g) in chronic alcoholism. […] Alcoholized rats after four months of alcoholism and treatment with Phenotropilom voluntarily give up intake of alcohol (anticraving activity) with free choice of water and alcohol (Table 11).

patients = test: Amenorrhea in patients on neuroleptic therapy; format: in vivo, human; details: tablets 100 or 200 mg per day, 3 months
Experimental: (§1) Investigation of the effect of Phenotropil in amenorrhea and functional dysmenorrhea was conducted on groups of patients aged 14-27 years. The first group (20-27 years) diagnosed with schizophrenia, was on the maintenance neuroleptic therapy and had menstrual cycle irregularities in the form of amenorrhea (for more than 6 months). Of those, 4 had amenorrhea of not established nature, observed also prior to the pronounced primary manifestation of mental disorder, 6 patients had amenorrhea that developed during treatment with neuroleptics. Phenotropil, tablets was administered in doses of 100 mg and 200 mg per day as part of a complex antipsychotic therapy as a corrector of psychogenic side effects of neuroleptics. The dose was selected based on the individual and clinical features of the patients. The duration of Phenotropil therapy was 3 months. Two groups (14-18 years) with functional dysmenorrhea and manifestations of pronounced spastic symptoms were studied. Duration of the Phenotropil monotherapy (50 and 100 mg per day) was one month followed by administration of the drug at one-week courses as a preventive agent. Patients with functional dysmenorrhea were investigated for cAMP level in comparison with the norm control group. The cAMP level was determined using the standard kits, by the method based on the competition with the labeled cyclic 3′,5-adenosine monophosphate in the level of binding with […].

mice [2] = test: Acute toxicity, single intraperitoneal injection in male mice; format: in vivo; details: male mice 18-24 g; single i.p.
Experimental: Tables 2, 2.1 and 2.2 present the results of acute toxicity studies of the Compounds with active substance content in at least white outbred male mice (body weight 18-24 g) and white outbred rats 30-35 days of age, of both sexes with a single dose. Calculation of toxic doses was made using the Wilcoxon and Litchfield method. Observations were made over 24 hours and 14 days after a single dose.
LD50 in rat pups after intragastric administration was not found. Intragastric administration to rat pups of doses of more than 1000 mg/kg is technically impossible due to the small volume of the stomach (Table 2.2).

rats = test: Hypobaric hypoxia in 7-day-old rats; format: in vivo
Stability during storage = format: physicochemical; details: sterile 0.001-3% solutions with cyclodextrin or Tween, ampoules
Experimental: The resulting compositions are stable. The studies were conducted in accordance with regulatory requirements for determination when stored in natural conditions (in a dry, dark place at a temperature not exceeding 30° C.) and using the standard method of accelerated aging.
The crystalline powder of the Phenotropil substances is not volatile, has white, rarely white to slightly yellowish or slightly cream color, bitter taste (bitter taste that disappears in the mouth rather quickly after dissolution, leaving no unpleasant sensations). In the related products, the bitter taste persists. The Compounds are sparingly soluble in water and saline, moderately soluble in 96.0% alcohol and chloroform. Readily soluble in water and saline under heating, but the solutions are not stable during cooling and storage under normal conditions (not more than 2 hours, which is acceptable for the extemporaneous preparations and research), moderately soluble in 5.0% glucose solution, dissolve well in the presence of solubilizers and emulsifiers. Tween80 and cyclodextrins increase solubility in water, especially Tween80, while cyclodextrins have limitations by concentration. […]

cortisol = test: Plasma cortisol level (Tsf-activity) in August and Wistar rats; format: in vivo; details: for Tsf-activity by cortisol at 3 hours vs control / plasma cortisol at 60 min / Tsf-activity by cortisol at 60 min vs control: i.p. 1.0-750 mg/kg, averaged
women = test: Skin aging, vessels and joints, topical solution and creams; format: in vivo, human; details: for Efficacy in % relative to baseline control (skin aging) / Efficacy in % (skin aging) / Efficacy expressed in % (age-related changes of blood vessels and joints) / Efficacy expressed in % (skin aging): humans, topical course; for Efficacy in % (skin aging): baseline control = 100.0; for Efficacy expressed in % (age-related changes of blood vessels and joints) / Efficacy expressed in % (skin aging): baseline control = 100
Experimental: Example 24 presents the results of research of Phenotropil as parapharmaceutic—cosmeceutical agents in women (age 53-60 years) and as a standard solution. The 0.1% water solution (distilled water) of Phenotropil and placebo was prepared; for convenience of preparing therapeutic cream formulation, the standard composition of cream base was used, or actual creams “Vecher”, “Lux” and “Gerantol” manufactured by “Svoboda” (Russia) were used as the base, with 100, 200, 300 mg of Phenotropil per 100 g of finished compositions to prepare a cosmeceutical agent. The cosmeceutical formulations were prepared with the powder of Compound 1 sifted and well ground in a mortar.
At baseline examination, main indicators of the skin condition of the hands and face in the groups were recorded, integral index for aggregate characteristics was calculated (dryness, wrinkling, superficial vascular fascicles, the intensity of subcutaneous vascular pattern, pigmentation—the intensity of color, the number of pigment spots and their total area). Preliminarily, each subject was tested for allergic skin reaction with the most concentrated formulation. No allergic reactions have been identified. In one group, only solution of Phenotropil was used in the morning and evening, applying a small amount (like a regular lotion) of the solution on cosmetic cotton pads and wiping the face and hands. In the other groups, this procedure was carried out before applying the Phenotropil-containing cream. The results of the baseline evaluation in each group were taken for 100.0%.

cAMP = cAMP level in functional dysmenorrhea patients; format: in vivo, human; details: for cAMP level / cAMP level, change in % (vs background dysmenorrhea): human plasma, primary dysmenorrhoea, first phase of the cycle
Experimental: as §1

Structure (SMILES): NC(=O)CN1CC(c2ccccc2)CC1=O (racemic) [Compound 1, (RS)-2-(2-oxo-4-phenylpyrrolidine-1-yl)acetamide]
- toxic effect of ethanol (lateral position indicator and lethal dose) (mice [1]): reduced tenfold
- patients restored, amenorrhea of unknown nature (patients): 30.0%
- patients restored, amenorrhea on antipsychotic therapy (patients): 40.0%
- patients with restored menstruations and menstrual cycle (patients; n=10): 70%
- LD50 (mice [2]): 1042 (982.9-1102.0) mg/kg
- altitude at which tremor was displayed (rats; 300 mg/kg): 11 thousand meters
- altitude at which tremor was observed (rats; 50 and 100 mg/kg (control 7,000 m)): 10,000 m
- Duration of life of animals (rats; ascension to 11000 m, 50 mg/kg): 6.9 ± 0.7 min
- Duration of life of animals (rats; ascension to 11000 m, 100 mg/kg): 6.9 ± 0.7 min
- Duration of life of animals (rats; ascension to 12000 m, 300 mg/kg): 7.3 ± 0.7 min
- tremor during stay at 11,000 meters for 2 hours (rats; control 11 episodes): tremor was observed only once
- storage stability of sterile solutions (Stability during storage): at least 12 months
- Tsf-activity by cortisol at 3 hours vs control (cortisol; August rats): +6.8%
- plasma cortisol at 60 min (cortisol; August rats): 45.6 ± 4.1 nmol/L
- Tsf-activity by cortisol at 60 min vs control (cortisol; August rats, listed as (RS)-2-(2-oxo-4-phenylpyrrolidin-1-yl)acetamide): +14.1%
- Tsf-activity by cortisol at 60 min vs control (cortisol; August rats, listed as Phenotropil): +14.1* %
- modulation factor change compared to the control (cortisol; August rats, single dose): −11.5%
- Tsf-activity by cortisol at 3 hours vs control (cortisol; Wistar rats): −7.6%
- plasma cortisol at 60 min (cortisol; Wistar rats): 50.9 ± 4.4 nmol/L
- Tsf-activity by cortisol at 60 min vs control (cortisol; Wistar rats, listed as (RS)-2-(2-oxo-4-phenylpyrrolidin-1-yl)acetamide): +2.0%
- biologically active dose (reliable effect on plasma cortisol), starting from (cortisol; rats, i.p., range tested 0.5-750.0 mg/kg): ≥ 1.0 mg/kg
- subjects with mild morning facial swelling (women; cream applied less than two hours before bedtime): 18.0%
- Efficacy in % relative to baseline control (skin aging) (women; 50 mg + “Gerantol” cream 100 g): 132.0 * %
- Efficacy in % (skin aging) (women; 50 mg + “Lux” cream 100 g): 167.0 * %
- Efficacy expressed in % (age-related changes of blood vessels and joints) (women; 100 mg + 100 g of cream base): 211* %
- Efficacy in % relative to baseline control (skin aging) (women; 100 mg + “Gerantol” cream 100 g): 205.0 * %
- Efficacy in % (skin aging) (women; 100 mg + “Lux” cream 100 g): 210.0 * %
- Efficacy expressed in % (skin aging) (women; 100 mg + “Vecher” cream 100 g): 317* %
- Efficacy expressed in % (age-related changes of blood vessels and joints) (women; 200 mg + 100 g of cream base): 219* %
- Efficacy in % relative to baseline control (skin aging) (women; 200 mg + “Gerantol” cream 100 g): 251.0 * %
- Efficacy in % (skin aging) (women; 200 mg + “Lux” cream 100 g): 240.0 * %
- Efficacy expressed in % (skin aging) (women; 200 mg + “Vecher” cream 100 g): 280* %
- Efficacy expressed in % (age-related changes of blood vessels and joints) (women; 300 mg + 100 g of cream base): 174* %
- Efficacy in % relative to baseline control (skin aging) (women; 300 mg + “Gerantol” cream 100 g): 277.0 * %
- Efficacy in % (skin aging) (women; 300 mg + “Lux” cream 100 g): 280.0 * %
- Efficacy expressed in % (skin aging) (women; 300 mg + “Vecher” cream 100 g): 249* %
- Efficacy in % (skin aging) (women; aqueous solution 0.1%): 212.0* %
- Efficacy in % (skin aging) (women; cream, 50 mg per 100 g of the base): 140.0 * %
- Efficacy in % (skin aging) (women; cream, 100 mg per 100 g of the base): 180.0 * %
- Efficacy in % (skin aging) (women; cream, 200 mg per 100 g of the base): 187.0 * %
- Efficacy in % (skin aging) (women; cream, 300 mg per 100 g of the base): 200.0 * %
- effect of course use on serum cAMP (cAMP; functional dysmenorrhoea, monotherapy 50 and 100 mg per day, 30 days): restored the functional norm of cAMP indicators
- cAMP level (cAMP; dose 50 mg): 14.35 ± 0.87 nmol/L
- cAMP level, change in % (vs background dysmenorrhea) (cAMP; dose 50 mg): −32%
- cAMP level (cAMP; dose 100 mg): 12.77 ± 1.24 nmol/L
- cAMP level, change in % (vs background dysmenorrhea) (cAMP; dose 100 mg): −39%
